# Test results reported in patent publication US8791132B2, “Compounds and methods for treatment of hypertension” (Medivation Technologies, Inc., priority 2011, dated 2014).
# Several values for one entry are separate records, joined by “and”; a condition that tells them apart may be missing. Equal values may be shown once. Read-outs that look alike come from different tables or passages of the source.
# Columns and labels:
# [1] = molecular target: T1, rat adrenergic α1B receptor (Rattus norvegicus, UniProt P15823); assay: Radioligand binding, adrenergic α1B ([3H]Prazosin); conditions: for inhibition at 0.03 µM: read-out: Percentage inhibition of ligand binding, Adrenergic α1B (0.03 μM), compound at 0.03 μM
# T1 construct: rat adrenergic α1B receptor obtained from Wistar Rat liver; from tissue; host or cells: Wistar rat liver
# T1 sequence (P15823 1-515): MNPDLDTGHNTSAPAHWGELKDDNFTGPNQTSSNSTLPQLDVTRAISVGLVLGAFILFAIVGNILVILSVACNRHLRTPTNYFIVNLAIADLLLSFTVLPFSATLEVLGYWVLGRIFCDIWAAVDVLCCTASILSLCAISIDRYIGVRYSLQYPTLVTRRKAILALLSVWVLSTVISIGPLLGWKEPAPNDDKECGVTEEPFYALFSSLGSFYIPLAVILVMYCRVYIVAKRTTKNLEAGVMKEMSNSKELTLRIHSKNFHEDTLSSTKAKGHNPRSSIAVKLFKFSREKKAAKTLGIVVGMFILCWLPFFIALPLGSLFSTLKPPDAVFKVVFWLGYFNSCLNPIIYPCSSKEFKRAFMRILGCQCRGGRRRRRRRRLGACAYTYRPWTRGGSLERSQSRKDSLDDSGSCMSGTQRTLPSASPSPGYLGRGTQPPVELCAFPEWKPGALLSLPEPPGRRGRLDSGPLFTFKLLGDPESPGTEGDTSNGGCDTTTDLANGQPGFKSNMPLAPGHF
# How it was run: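 Filter binding with Wistar rat liver α1B preparation: test compound plus 0.25 nM [3H]prazosin, 1 h at 25° C in modified Tris-HCl buffer pH 7.4.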
# [2] = molecular target: T2, human recombinant adrenergic α2B receptor (Homo sapiens, UniProt P18089); assay: Radioligand binding, adrenergic α2B ([3H]Rauwolscine); conditions: for Ki: read-out: Ki α2B
# T2 construct: expressed in transfected cells; host or cells: CHO-K1
# T2 sequence (P18089 1-450): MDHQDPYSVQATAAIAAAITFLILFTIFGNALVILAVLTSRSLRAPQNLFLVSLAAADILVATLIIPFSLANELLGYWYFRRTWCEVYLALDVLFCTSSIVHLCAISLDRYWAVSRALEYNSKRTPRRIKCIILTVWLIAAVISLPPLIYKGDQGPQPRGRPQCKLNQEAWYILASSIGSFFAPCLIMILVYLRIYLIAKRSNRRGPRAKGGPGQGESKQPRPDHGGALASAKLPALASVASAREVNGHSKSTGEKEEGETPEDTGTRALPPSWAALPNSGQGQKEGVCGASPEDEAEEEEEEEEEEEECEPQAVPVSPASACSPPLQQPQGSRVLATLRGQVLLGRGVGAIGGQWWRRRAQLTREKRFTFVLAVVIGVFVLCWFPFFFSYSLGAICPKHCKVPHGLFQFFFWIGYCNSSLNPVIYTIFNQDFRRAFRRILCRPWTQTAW
# How it was run: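 Receptor expressed in CHO-K1 cells, assayed in 50 mM Tris-HCl pH 7.4 with 12.5 mM MgCl2, 1 mM EDTA and 0.2% BSA. Compounds were incubated with 2.5 nM [3H]Rauwolscine for 60 min at 25° C; 10 μM Prazosin defined non-specific binding. Filter counting gave percent inhibition of specific binding.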
# [3] = molecular target: T3, human recombinant adrenergic α2A receptor (Homo sapiens, UniProt P08913); assay: Radioligand binding, adrenergic α2A ([3H]MK-912)
# T3 construct: expressed in transfected cells; host or cells: insect Sf9 cells
# T3 sequence (P08913 1-465): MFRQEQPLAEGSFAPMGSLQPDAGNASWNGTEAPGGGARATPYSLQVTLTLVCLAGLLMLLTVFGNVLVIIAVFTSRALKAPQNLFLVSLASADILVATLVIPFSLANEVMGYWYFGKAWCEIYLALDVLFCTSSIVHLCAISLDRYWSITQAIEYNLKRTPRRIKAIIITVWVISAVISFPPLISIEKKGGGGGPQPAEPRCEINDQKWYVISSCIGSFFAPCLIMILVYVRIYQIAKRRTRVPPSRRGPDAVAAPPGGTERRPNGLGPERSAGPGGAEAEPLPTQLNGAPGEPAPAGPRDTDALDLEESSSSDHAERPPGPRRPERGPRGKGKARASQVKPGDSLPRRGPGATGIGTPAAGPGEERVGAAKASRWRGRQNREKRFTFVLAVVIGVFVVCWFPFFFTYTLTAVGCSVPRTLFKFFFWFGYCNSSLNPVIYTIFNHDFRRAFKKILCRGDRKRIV
# How it was run: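 Sf9-expressed receptor was incubated with compound for 60 min at 25 °C in modified Tris-HCl buffer, pH 7.4. Nonspecific binding was taken as that remaining with 10 μM WB-4101.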
# [4] = molecular target: T4, human recombinant adrenergic α1D receptor (Homo sapiens, UniProt P25100); assay: Radioligand binding, adrenergic α1D ([3H]Prazosin); conditions: for inhibition at 0.03 µM: read-out: Percentage inhibition of ligand binding, Adrenergic α1D (0.03 μM), compound at 0.03 μM
# T4 construct: expressed in transfected cells; host or cells: HEK-293
# T4 sequence (P25100 1-572): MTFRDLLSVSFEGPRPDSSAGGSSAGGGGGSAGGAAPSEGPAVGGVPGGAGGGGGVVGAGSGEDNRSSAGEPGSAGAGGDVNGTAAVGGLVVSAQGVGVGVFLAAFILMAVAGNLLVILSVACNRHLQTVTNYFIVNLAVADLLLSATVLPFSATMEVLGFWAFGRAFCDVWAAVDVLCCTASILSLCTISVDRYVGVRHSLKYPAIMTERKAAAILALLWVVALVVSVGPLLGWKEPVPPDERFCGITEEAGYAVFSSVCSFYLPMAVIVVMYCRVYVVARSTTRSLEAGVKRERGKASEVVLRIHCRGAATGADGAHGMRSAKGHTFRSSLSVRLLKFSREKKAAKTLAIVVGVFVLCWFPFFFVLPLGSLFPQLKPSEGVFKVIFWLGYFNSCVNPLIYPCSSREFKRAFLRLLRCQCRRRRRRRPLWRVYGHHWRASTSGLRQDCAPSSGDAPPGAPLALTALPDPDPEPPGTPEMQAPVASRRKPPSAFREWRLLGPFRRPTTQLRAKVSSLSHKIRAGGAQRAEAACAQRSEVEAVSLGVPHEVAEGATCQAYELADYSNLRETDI
# Experimental: Compounds were incubated with 0.6 nM [3H]Prazosin for 60 min at 25° C. Non-specific binding was estimated in the presence of 10 μM phentolamine. Receptor proteins were filtered and washed, the filters were then counted to determine [3H]Prazosin specifically bound. […] Biochemical assay results are presented as the percent inhibition of specific binding in Table B1.
# [5] = [3H]Prazosin, repeat datapoints each shown
# [6] = read-out: Percentage inhibition of ligand binding, Adrenergic α2B (0.1 μM), compound at 0.1 μM, [3H]Rauwolscine, repeat datapoints each shown
# [7] = read-out: Percentage inhibition of ligand binding, Adrenergic α2A (0.1 μM), compound at 0.1 μM, [3H]MK-912, repeat datapoints each shown
# [8] = read-out: Percentage inhibition of ligand binding, Adrenergic α1B (0.1 μM), compound at 0.1 μM, [3H]Prazosin, repeat datapoints each shown
# [9] = read-out: Percentage inhibition of ligand binding, Adrenergic α1D (0.1 μM), compound at 0.1 μM, [3H]Prazosin, repeat datapoints each shown
# [10] = 0.1 μM compound, read-out: Percentage inhibition of ligand binding, Adrenergic α1B
# [11] = 0.1 μM compound, read-out: Percentage inhibition of ligand binding, Adrenergic α2B
# [12] = 0.1 μM compound, read-out: Percentage inhibition of ligand binding, Adrenergic α2A
# [13] = 0.1 μM compound, read-out: Percentage inhibition of ligand binding, Adrenergic α1D
# [14] = compound at 0.1 μM, [3H]Prazosin, repeat assays, each datapoint shown, read-out: Percentage inhibition of ligand binding, Adrenergic α1D
"inhibition at 0.1 µM [3, 7] [%]","inhibition at 0.1 µM [1, 10] [%]","inhibition at 0.1 µM [2, 11] [%]","inhibition at 0.1 µM [3, 12] [%]","inhibition at 0.1 µM [4, 13] [%]",SMILES,further results
86,,,,,Cc1ccc2c(c1)c1c(n2CCc2ccc(F)cc2)CCN(C)C1 [compound 206],"inhibition at 0.03 µM [1, 5]: 46%; inhibition at 0.1 µM [2, 6]: 102%; Ki [3]: 0.00112 µM and 0.00679 µM; inhibition at 0.03 µM [4, 5]: 42%"
10,,,,,CNC(=O)c1cccc(/C(C)=C/n2c3c(c4cc(C)ccc42)CN(C)CC3)c1 [compound 107],"inhibition at 0.1 µM [1, 8]: 56%; inhibition at 0.1 µM [2, 6]: 85%; inhibition at 0.1 µM [4, 9]: 63%"
,63,99,67,31,"Cc1ccc2c(c1)c1c(n2CNc2ccccc2)CCN(C)C1 [compound 324, (2,8-dimethyl-1,2,3,4-tetrahydro-pyrido[4,3-b]indol-5-ylmethyl)-phenyl-amine]",
87,,,,,C/C(=C/n1c2c(c3cc(C)ccc31)CCN(C)CC2)c1ccccc1F [compound 230],"inhibition at 0.1 µM [1, 8]: 94%; inhibition at 0.1 µM [2, 6]: 93%; inhibition at 0.1 µM [4, 9]: 58%"
7,,,,,Cc1ccc(CCn2c3c(c4cccnc42)CN2CCCC2C3)cn1 (stereo not drawn) [II-234],"inhibition at 0.1 µM [1, 8]: -8%; inhibition at 0.1 µM [2, 6]: 33%; inhibition at 0.1 µM [4, 9]: -1%"
,95,93,76,80,"Cc1ccc(C#Cn2c3c(c4cc(C)ccc42)CN(C)CC3)nc1 [compound 328, 2,8-dimethyl-5-(5-methyl-pyridin-2-ylethynyl)-2,3,4,5-tetrahydro-1H-pyrido[4,3-b]indole]",
,76,41,94,39,"Cc1ccc2c(c1)c1c(n2CCc2csc3ccccc23)CCN(C)C1 [compound 294, 5-(2-benzo[b]thiophen-3-yl-ethyl)-2,8-dimethyl-2,3,4,5-tetrahydro-1H-pyrido[4,3-b]indole]",
,76,98,97,65,CSc1ccc(/C(C)=C/n2c3c(c4cc(Cl)ccc42)CN(C)CC3)cc1 [compound 280],
,,,,,CCc1ccc(CCn2c3c(c4cc(C)ccc42)CN(C)CC3)cn1 [compound 89],"inhibition at 0.1 µM ([1]; compound at 0.1 μM, [3H]Prazosin, repeat assays, each datapoint shown, read-out: Percentage inhibition of ligand binding, Adrenergic α1B): 79%; inhibition at 0.03 µM ([2]; compound at 0.03 μM, [3H]Rauwolscine, repeat assays, each datapoint shown, read-out: Percentage inhibition of ligand binding, Adrenergic α2B): 25%; Percentage inhibition of ligand binding, Adrenergic α2B ([2]; compound at 0.1 μM, [3H]Rauwolscine, repeat assays, each datapoint shown, 0.1 µM): 57% and 79%; Ki [2]: 0.032 µM; inhibition at 0.1 µM ([3]; compound at 0.1 μM, [3H]MK-912, repeat assays, each datapoint shown, read-out: Percentage inhibition of ligand binding, Adrenergic α2A): 23%; inhibition at 0.1 µM [4, 14]: 68%"
,23,35,81,17,"Cc1ccc2c(c1)c1c(n2C2=C(c3sccc3C)CCC2)CCN(C)C1 [compound 302, 2,8-dimethyl-5-(2-(3-methylthiophen-2-yl)cyclopent-1-enyl)-2,3,4,5-tetrahydro-1H-pyrido[4,3-b]indole]",
,85,95,92,69,Cc1ccc2c(c1)c1c(n2/C=C/c2cnc3ccccc3c2)CCN(C)C1 [compound 323],
,75,94,51,61,C/C(=C/n1c2c(c3cc(C)ccc31)CN(C)CC2)c1cnn(C)c1 [compound 275],
,62,98,93,44,C/C(=C\n1c2c(c3cc(C)ccc31)CN(C)CC2)c1ccc(C)s1 [compound 278],
,78,54,52,47,"Cc1ccc(CCn2c3c(c4cc(C)ccc42)CN(C)CC3)nc1 [compound 299, 2,8-dimethyl-5-[2-(5-methyl-pyridin-2-yl)-ethyl]-2,3,4,5-tetrahydro-1H-pyrido[4,3-b]indole]",
98,,,,,CN1CCc2c(c3cc(Cl)ccc3n2CCc2ccc(Cl)cc2)C1 [compound 213],"inhibition at 0.03 µM [1, 5]: 53%; Percentage inhibition of ligand binding, Adrenergic α2B (0.1 μM) ([2]; compound at 0.1 μM, [3H]Rauwolscine, repeat datapoints each shown, 0.1 µM): 68% and 97%; Ki [2]: 0.0263 µM; inhibition at 0.03 µM ([2]; read-out: Percentage inhibition of ligand binding, Adrenergic α2B (0.03 μM), compound at 0.03 μM, [3H]Rauwolscine, repeat datapoints each shown): 26%; inhibition at 0.03 µM [4, 5]: 53%"
,,,,,Cc1ccc2c(c1)c1c(n2CC(C)(O)c2ccc(F)cc2)CCN(C)C1 (stereo not drawn) [compound 90],"Percentage inhibition of ligand binding, Adrenergic α1B ([1]; compound at 0.1 μM, [3H]Prazosin, repeat assays, each datapoint shown, 0.1 µM): 57%; inhibition at 0.1 µM ([2]; compound at 0.1 μM, [3H]Rauwolscine, repeat assays, each datapoint shown, read-out: Percentage inhibition of ligand binding, Adrenergic α2B): 91%; Percentage inhibition of ligand binding, Adrenergic α2A ([3]; compound at 0.1 μM, [3H]MK-912, repeat assays, each datapoint shown, 0.1 µM): 22%; inhibition at 0.1 µM [4, 14]: 20%"
